# Measured values as given in ChEMBL document CHEMBL1133545, “Inhibition of monoamine oxidases by functionalized coumarin derivatives: biological activities, QSARs, and 3D-QSARs” (J Med Chem, 2000).
# How the values were obtained:
# [1] = target: T1, Amine oxidase [flavin-containing] A (Rattus norvegicus, UniProt P21396)
# T1 sequence (P21396 whole entry): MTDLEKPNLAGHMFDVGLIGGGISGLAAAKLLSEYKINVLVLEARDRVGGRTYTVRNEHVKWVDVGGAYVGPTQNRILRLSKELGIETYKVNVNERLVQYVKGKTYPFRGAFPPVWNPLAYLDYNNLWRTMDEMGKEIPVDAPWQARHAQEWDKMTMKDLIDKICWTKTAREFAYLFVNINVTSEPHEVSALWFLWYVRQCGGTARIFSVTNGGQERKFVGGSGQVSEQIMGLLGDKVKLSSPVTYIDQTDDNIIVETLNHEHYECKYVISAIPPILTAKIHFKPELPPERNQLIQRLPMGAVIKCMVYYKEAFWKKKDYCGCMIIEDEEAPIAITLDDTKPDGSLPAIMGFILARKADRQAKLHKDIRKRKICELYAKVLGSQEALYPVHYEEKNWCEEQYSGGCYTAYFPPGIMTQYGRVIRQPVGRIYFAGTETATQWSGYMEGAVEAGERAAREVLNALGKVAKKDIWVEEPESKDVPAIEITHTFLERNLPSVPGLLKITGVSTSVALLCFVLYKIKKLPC
# [2] = target: T2, Amine oxidase [flavin-containing] B (Rattus norvegicus, UniProt P19643)
# T2 sequence (P19643 whole entry): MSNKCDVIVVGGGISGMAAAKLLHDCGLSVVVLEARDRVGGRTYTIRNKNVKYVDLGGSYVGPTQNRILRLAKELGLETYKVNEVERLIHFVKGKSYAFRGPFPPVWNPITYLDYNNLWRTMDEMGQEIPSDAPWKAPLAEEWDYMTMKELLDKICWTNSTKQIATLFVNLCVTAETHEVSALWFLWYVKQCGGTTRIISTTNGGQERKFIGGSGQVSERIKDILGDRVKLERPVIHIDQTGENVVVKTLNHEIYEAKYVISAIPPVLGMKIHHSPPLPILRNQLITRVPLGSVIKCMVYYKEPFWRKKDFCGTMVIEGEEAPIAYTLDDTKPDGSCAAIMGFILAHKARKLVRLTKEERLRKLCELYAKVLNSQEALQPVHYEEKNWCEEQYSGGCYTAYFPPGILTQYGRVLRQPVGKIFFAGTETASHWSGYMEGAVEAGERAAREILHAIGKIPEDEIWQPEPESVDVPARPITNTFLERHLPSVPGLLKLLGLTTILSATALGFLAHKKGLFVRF
# [3] = target: T1, Amine oxidase [flavin-containing] A; remark: listed apart in the source
# Description: Compound was tested for its inhibitory effect on Monoamine oxidase A at 15 uM
# [4] = target: T1, Amine oxidase [flavin-containing] A; remark: listed apart in the source
# Description: Compound was tested for its inhibitory effect on Monoamine oxidase A at 1 uM
# [5] = target: T2, Amine oxidase [flavin-containing] B; remark: listed apart in the source
# [6] = target: T1, Amine oxidase [flavin-containing] A; remark: listed apart in the source
# Description: Compound was tested for its inhibitory effect on MAO-A ( Monoamine Oxidase) at 50 uM
# [7] = target: T2, Amine oxidase [flavin-containing] B; remark: listed apart in the source
# Description: Compound was tested for its inhibitory effect on MAO-B ( Monoamine Oxidase) at 4 uM
# [8] = target: T1, Amine oxidase [flavin-containing] A; remark: listed apart in the source
# Description: Compound was tested for its inhibitory effect on Monoamine oxidase A at 30 uM
# [9] = target: T1, Amine oxidase [flavin-containing] A; remark: listed apart in the source
# Description: Compound was tested for its inhibitory effect on Monoamine oxidase A at 20 uM)
# [10] = target: T2, Amine oxidase [flavin-containing] B; remark: listed apart in the source
# Description: (§1) Compound was tested for its inhibitory effect on Monoamine oxidase B at 3 uM
# [11] = target: T1, Amine oxidase [flavin-containing] A; remark: listed apart in the source
# Description: Compound was tested for its inhibitory effect on Monoamine oxidase A at 3 uM
# [12] = target: T1, Amine oxidase [flavin-containing] A; remark: listed apart in the source
# Description: Compound was tested for its inhibitory effect on Monoamine oxidase A at 50 uM
# [13] = target: T1, Amine oxidase [flavin-containing] A; remark: listed apart in the source
# Description: Compound was tested for its inhibitory effect on Monoamine oxidase A at 2 uM
# [14] = target: T2, Amine oxidase [flavin-containing] B; remark: listed apart in the source
# Description: as §1
# [15] = target: T1, Amine oxidase [flavin-containing] A; remark: listed apart in the source
# Description: Compound was tested for its inhibitory effect on Monoamine oxidase A at 8 uM
# [16] = target: T1, Amine oxidase [flavin-containing] A; remark: listed apart in the source
# Description: (§2) Compound was tested for its inhibitory effect on MAO-A ( Monoamine Oxidase) at 100 uM
# [17] = target: T2, Amine oxidase [flavin-containing] B; remark: listed apart in the source
# Description: (§3) Compound was tested for its inhibitory effect on MAO-B ( Monoamine Oxidase) at 100 uM
# [18] = target: T1, Amine oxidase [flavin-containing] A; remark: listed apart in the source
# Description: Compound was tested for its inhibitory effect on Monoamine oxidase A at 5 uM
# [19] = target: T2, Amine oxidase [flavin-containing] B; remark: listed apart in the source
# Description: Compound was tested for its inhibitory effect on Monoamine oxidase B at 40 uM
# [20] = target: T2, Amine oxidase [flavin-containing] B; remark: listed apart in the source
# Description: as §3
# [21] = target: T1, Amine oxidase [flavin-containing] A; remark: listed apart in the source
# Description: as §2
IC50 [1] [nM],IC50 [2] [nM],Structure (SMILES),also measured
21900,126,Cc1cc(=O)c2cc(OCc3ccccc3)ccc2o1,–
–,2400,c1ccc(COc2ccc3c(c2)OCO3)cc1,inhibition at 30 µM [8]: 18%
3630,234,O=C1OCc2ccc(OCc3ccccc3)cc21,–
16200,1050,O=c1ccoc2cc(OCc3ccccc3)ccc12,–
–,58900,O=c1oc2cc(OCc3ccccc3)ccc2s1,inhibition at 20 µM [9]: 0%
102000,1050,O=C1CCc2ccc(OCc3ccccc3)cc2N1,–
–,1820,c1ccc(COc2ccc3ccoc3c2)cc1,inhibition at 50 µM [12]: 30%
–,631,CC1C(=O)Nc2cc(OCc3ccccc3)ccc2C1C (centres undefined),inhibition at 2 µM [13]: 0%
–,1380,O=c1cc(C(F)(F)F)c2ccc(OCc3ccccc3)cc2o1,–
–,2570,c1ccc(COc2ccc3ccccc3c2)cc1,inhibition at 8 µM [15]: 0%
6760,562,O=c1ccoc2ccc(OCc3ccccc3)cc12,–
39800,501,c1ccc(COc2ccc3c(c2)OCC3)cc1,–
23400,2040,O=c1ccc2cc(OCc3ccccc3)c(O)cc2o1,–

# The remaining lines, values behind:
Structure (SMILES),IC50 [1] [nM],IC50 [2] [nM],also measured
Cc1c(C)c2ccc(OCCc3ccccc3)cc2oc1=O,1000,–,–
O=c1cc(O)c2ccc(OCc3ccccc3)cc2o1,–,1580,inhibition at 15 µM [3]: 26%
O=c1cc(-c2ccccc2)oc2cc(OCc3ccccc3)ccc12,–,–,inhibition at 1 µM [4]: 6%; inhibition at 1 µM [5]: 6%
Cc1c(C)c2ccc(OCc3ccc(F)c(O)c3)cc2oc1=O,115,7.41,–
COc1cc2ccc(=O)oc2cc1OCc1ccccc1,–,6760,inhibition at 50 µM [6]: 18%
O=C1CCc2ccc(OCc3ccccc3)cc2O1,–,–,inhibition at 4 µM [7]: 20%
Cc1c(-c2ccccc2)c(=O)oc2cc(OCc3ccccc3)ccc12,–,–,inhibition at 3 µM [10]: 8%; inhibition at 3 µM [11]: 4%
O=c1cc(-c2ccccc2)oc2ccc(OCc3ccccc3)cc12,–,–,inhibition at 3 µM [14]: 38%
O=c1ccc2cc(O[C@H]3O[C@H](CO)[C@@H](O)[C@@H](O)[C@@H]3O)c(OCc3ccccc3)cc2o1,–,–,inhibition at 100 µM [16]: 15%; inhibition at 100 µM [17]: 11%
Cc1c(C)c2ccc(OCc3cccc(N)c3)cc2oc1=O,1000,34.7,–
O=C1NC(=O)c2cc(OCc3ccccc3)ccc21,–,–,inhibition at 5 µM [18]: 25%
Cc1ccc(S(=O)(=O)Nc2ccc3c(C)c(C)c(=O)oc3c2)cc1,67600,–,inhibition at 40 µM [19]: 29%
Cc1c(C)c2ccc(OC(C)c3ccccc3)cc2oc1=O (centres undefined),3550,324,–
Cc1c(C)c2ccc(/C=C/c3ccccc3)cc2oc1=O,407,28.2,–
CC(=O)Nc1cccc(COc2ccc3c(C)c(C)c(=O)oc3c2)c1,7080,–,–
O=c1ccc2ccccc2o1 [COUMARIN],40700,12000,–
O=c1ccc2cc(O[C@@H]3O[C@H](CO)[C@@H](O)[C@H](O)[C@H]3O)c(O)cc2o1 [ESCULIN],–,–,inhibition at 100 µM [20]: 7%; inhibition at 100 µM [21]: 9%
